# Entries after “also recorded” stand apart in the source; their conditions may differ.
# Columns and labels:
# [1] = test system: Store Operated Calcium Entry (SOCE) in Jurkat cells; assay: Fura-2 single-cell Ca2+ measurement of tBHQ-induced SOCE in Jurkat cells; type: cell-based, human; details: Homo sapiens, SOCE modulation based on tBHQ-induced calcium influx
# Description: Immortalized line of human T lymphocyte Jurkat cells were achieved from ATCC (ATCC® TIB-152™, Rockville, Md., USA) and were cultured in Roswell Park Memorial Institute Medium (RPMI 1640; Sigma-Aldrich, Italy), supplemented with 10% heat-inactivated FBS (Gibco, Italy), 1-glutamine 50 mg/mL (Sigma-Aldrich, Italy), penicillin 10 U/mL and streptomycin […] (Sigma-Aldrich, Italy) at 37° C., under a 5% CO2 humidified atmosphere. For experiments, the cells were plated onto glass coverslips at concentrations of 6×10^4 per mL (24 mm diameter coverslips in 6 well plates).
# Compounds were also tested on Jurkat cells in single-cell analysis using Fura-2 AM on cover-slips. Jurkat cells were loaded with 5 μM Fura-2 AM in presence of 0.02% of Pluronic-127 (both from Life Technologies, Italy) and 1 μM sulfinpyrazone in Krebs-Ringer buffer (KRB, 135 mM NaCl, 5 mM KCl, 0.4 mM KH2PO4, 1 mM MgSO4, 5.5 mM glucose, 20 mM HEPES, pH 7.4) containing 2 mM CaCl2 (30 min, room temperature). Afterwards, cells were washed and incubated with KRB for other 30 min to allow de-esterification of Fura-2AM. To measure store operated calcium entry, changes in cytosolic Ca^2+ were monitored upon depletion of the intracellular Ca^2+ stores. Experiments were carried out prior to and during exposure of the cells to the Ca^2+-free solution. In the absence of Ca^2+, the intracellular Ca^2+ stores were depleted by inhibition of the vesicular Ca^2+ pump by 2,5-t-butylhydroquinone (tBHQ, 50 μM; Sigma-Aldrich, Italy). Re-addition of 2 mM Ca^2+ allowed assessing the SOCE. During the experiments the cover-slips were mounted into acquisition chamber and placed on the stage of a Leica DMI6000 epi-fluorescent microscope equipped with S Fluor ×40/1.3 objective. Fura-2 was excited by alternate 340 and 380 nm using a Polychrome IV mono-chromator (Till Photon-ics, Germany) and the probe emission light was filtered through 520/20 band-pass filter and collected by a cooled CCD camera (Hamamatsu, Japan). The fluorescence signals were acquired and processed using MetaFluor software (Molecular Device, Sun-Nyvale, C A, USA). To quantify the differences in the amplitudes of Ca^2+ transients the ratio values were normalized using the formula ΔF/F0 (referred to as normalized Fura-2 ratio, “Norm. Fura ratio”). The percentage of SOCE modulation for each of 15 compounds was determined based on value of tBHQ-induced calcium influx into Jurkat cells. Data were analysed using Microsoft Excel and GraphPad Prism.
# Orai1 mutated proteins = assay: SOCE in HEK cells overexpressing wild-type or mutated Orai1 (Fura2-AM single cell analysis); type: cell-based, human; details: 10 μM
# Description: (§1) SOCE induced by tBHQ in wilde-type HEK cells or HEK cells overexpressing the indicated STIM1 (A) or Orai1 (B) proteins. Average traces of approx. 600 cells from 20 coverslips performed on 4 separate days for each condition.
# (§2) 3-(1-(4-(4-(ethoxycarbonyl)-5-(trifluoromethyl)-1H-pyrazol-1-yl)phenyl)-1H-1,2,3-triazol-4-yl)benzoic acid 10 μM impairs SOCE both in Wild-type and STIM1 (A) or Orai1 (B) mutated cells.
# (§3) HEK STIM1 c.326A>G p.H109R (A) and HEK Orai1 c.734C>T p.P245L (B) cells were assayed for a calcium response to different concentrations of 3-(1-(4-(4-(ethoxycarbonyl)-5-(trifluoromethyl)-1H-pyrazol-1-yl)phenyl)-1H-1,2,3-triazol-4-yl)benzoic acid (1-3-10-30-100 μM) using Fura2-AM single cell analysis. Concentration-response curves represent the AUC % of 3-(1-(4-(4-(ethoxycarbonyl)-5-(trifluoromethyl)-1H-pyrazol-1-yl)phenyl)-1H-1,2,3-triazol-4-yl)benzoic acid.
# (§4) Human embryonic kidney HEK cells were obtained from ATCC (ATCC® CRL-1573™, Rockville, Md., USA) and were cultured in Dulbecco's Modified Eagle's Medium (DMEM; Sigma-Aldrich, Italy), supplemented with 10% heat-inactivated FBS (Gibco, Italy), 1-glutamine 50 mg/mL (Sigma-Aldrich, Italy), penicillin 10 U/mL and streptomycin […] (Sigma-Aldrich, Italy) at 37° C., under a 5% CO2 humidified atmosphere. […]
# [2] = test system: Store Operated Calcium Entry (SOCE) in BV-2 cells; assay: Fluo-4 fluorimetric assay of tBHQ-induced store operated calcium entry in BV-2 cells; type: cell-based, mouse
# Description: (A) BV-2 cells were plated in poly-d-lysine coated 24-well plate and incubated overnight. After 24 hours, cells were loaded with 2 μM Fluo-4 and placed in an extracellular solution containing 0 mM Ca^2+. Stores were depleted with 50 μM tBHQ and calcium influx was stimulated by the addition of 2 mM Ca^2+ alone (Ctrl), or in conbination with: compound with no activity (NM-3A), and compounds that positively (4-(1-(4-(3,5-bis(trifluoromethyl)-1H-pyrazol-1-yl)phenyl)-1H-1,2,3-triazol-4-yl)benzoic acid) and negatively (3-(1-(4-(4-(ethoxycarbonyl)-5-(trifluoromethyl)-1H-pyrazol-1-yl)phenyl)-1H-1,2,3-triazol-4-yl)benzoic acid) regulate SOCE. Calcium responses are expressed as changes in fluorescence intensity before and after the addition of selected modulators. (B) BV-2 cells were assayed for a calcium response to different concentrations of 3-(1-(4-(4-(ethoxycarbonyl)-5-(trifluoromethyl)-1H-pyrazol-1-yl)phenyl)-1H-1,2,3-triazol-4-yl)benzoic acid and 4-(1-(4-(3,5-bis(trifluoromethyl)-1H-pyrazol-1-yl)phenyl)-1H-1,2,3-triazol-4-yl)benzoic acid (0.1-0.3-1-3-10-30-100 μM) using Fluo-4 fluorimetric assay. Concentration-response curves represent the AUC % of both compounds as compared to positive control.
# Immortalized primary mouse microglial BV-2 cells were obtained from ATCC (ATCC® CRL-2540™, Rockville, Md., USA) and were cultured in Dulbecco's Modified Eagle's Medium (DMEM; Sigma-Aldrich, Italy), supplemented with 10% heat-inactivated FBS (Gibco, Italy), 1-glutamine 50 mg/mL (Sigma-Aldrich, Italy), penicillin 10 U/mL and streptomycin […] (Sigma-Aldrich, Italy) at 37° C., under a 5% CO2 humidified atmosphere. For experiments, the cells were plated 2×10^4 per ml in 24 well plates) or onto glass coverslips at concentrations of 4×10^4 per mL (24 mm diame-ter coverslips in 6 well plates).
# BV-2 cells were loaded with 5 μM Fluo-4 AM in presence of 0.02% of Pluronic-127 (both from Life Technologies, Italy) and 10 μM sulfinpyrazone in Krebs-Ringer buffer (KRB, 135 mM NaCl, 5 mM KCl, 0.4 mM KH2PO4, 1 mM MgSO4, 5.5 mM glucose, 20 mM HEPES, pH 7.4) containing 2 mM CaCl2 (30 min, room temperature). Subsequently, cells were washed and incubated with KRB for other 30 min to allow de-esterification of Fluo-4 AM. Experiments were carried out prior to and during exposure of the cells to the Ca^2+-free solution. In the absence of Ca^2+, the intracellular Ca^2+ stores were depleted by 2,5-t-butylhydroquinone (tBHQ, 50 μM; Sigma-Aldrich, Italy), a SERCA poison, and then calcium 2 mM was re-added to the extracellular solution. Fluorescence is then monitored sequentially for a second in each well for 600 seconds with excitation at 494 nm and an emission wavelength at 516 nm on the V3 Victor plate-reader (Perkin Elmer), generating time-curves for each well. Data were analysed using Microsoft Excel and GraphPad Prism.
# The percentage of SOCE inhibition for each compound was determined based on value of tBHQ-induced calcium influx into BV-2 cells (Table 2).
# STIM1 mutated proteins = assay: SOCE in HEK cells overexpressing wild-type or mutated STIM1 (Fura2-AM single cell analysis); type: cell-based, human; details: 10 μM
# Description: as §1, §2, §3, §4
compound,measurement,setting,value
"CCOC(=O)c1cnn(-c2ccc(-n3cc(-c4cccc(C(=O)O)c4)nn3)cc2)c1C(F)(F)F [3-(1-(4-(4-(ethoxycarbonyl)-5-(trifluoromethyl)-1H-pyrazol-1-yl)phenyl)-1H-1,2,3-triazol-4-yl)benzoic acid]",inhibition at 10 µM,[1],70.4%
same,Effect on SOCE in wild-type and Orai1 mutated cells (FIG. 4B),Orai1 mutated proteins,impairs SOCE; also recorded: able to revert the over-activation
same,"Regulation of SOCE (calcium response, representative traces FIG. 2A)","[2]; Fluo-4, 50 μM tBHQ, 2 mM Ca2+ re-addition",negatively
same,inhibition at 10 µM,"[2]; Mus musculus, 10 μM, SOCE inhibition based on tBHQ-induced calcium influx",45.3%
same,Effect on SOCE in wild-type and STIM1 mutated cells (FIG. 4A),STIM1 mutated proteins,impairs SOCE; also recorded: able to revert the over-activation
